Data reported in PMC7589992 (Pharmaceutics, 2020).
Where two headings read alike, the source gives them in different places.

Assays:
[1] = ThT binding to supramolecular complexes, plate reader fluorescence; type: physicochemical; settings: all pH-values tested (5, 6.5, 7.4); 50 µM insulin or PTH(1-34) or 200 µM penetratin alone, 100 µM ThT; N = 3
[2] = tested on: Male Sprague Dawley rats; assay: In situ rat intestinal injection: blood glucose; type: in vivo; settings: intraintestinal
Protocol: Male Sprague Dawley rats (Taconic, Ejby, Denmark) weighing ~250 g were allowed to acclimatize for at least 8 days at 20–22 °C and 45–65% humidity with free access to water and food. The rats were fasted for 18 h prior to surgery. Hypnorm (fentanyl 0.315 mg/mL and fluanisone 10 mg/mL) (Glostrup apotek, Glostrup, Denmark) and Dormicum (midazolam 5 mg/mL) (Nomeco, Copenhagen, Denmark) were mixed 1:1 (v/v) with ultrapure water and used for anesthesia. The initial dose was 2 mL/kg and subsequent doses of 1 mL/kg were given every 20 min within the first hour and thereafter every 40 min to keep the animals anaesthetized. All doses of anesthetics were administered subcutaneously in the neck region. The abdominal wall was cut open and the small intestine localized. A 10 cm PE-50 catheter (Smiths Medical, Keene, NH, USA) was inserted into the middle of the intestine and secured with a 3/0 suture (Braun, Tuttlingen, Germany). Care was taken not to interrupt the mesenteric blood flow. The intestine was hydrated with 1–2 mL isotonic sodium chloride solution before the rat abdominal wall was closed with 9 mm clips using the AutoClip Wound Closure System (Alzet, Cupertino, CA, USA). The animal was left on a 37 °C heating plate (Scandidact, Kvistgaard, Denmark) for 30 min prior dosing of the test samples to allow normalization of the potentially elevated blood glucose level resulting from stress induced by handling and surgery. […] A volume of 200 µL air was injected immediately after dosing to fully empty the catheter into the intestinal lumen. 200 µL blood samples were collected from the tail vein at time points 0, 5, 15, 30, 45, 60, 90, and 120 min into EDTA-coated microcuvette vials (Sarstedt, Nümbrecht, Germany). The blood samples were placed on ice prior isolation of the plasma by centrifugation at 2000× g at 4 °C for 10 min (Eppendorf centrifuge 5424, Eppendorf, Hamburg, Germany). Blood glucose was measured at time points of 15, 30, 45, 60, 90, and 120 min after dosing using an On-Call blood glucose meter (Acon, San Diego, CA, USA). After the final blood sampling, the animals were euthanized while still under anesthesia using 90% CO2 in O2 [19]. The abdominal wall of the rats was reopened after the experiment to ensure the catheter was still in place. Likewise, control of potential damage to the intestine was determined macroscopically. The experiments were conducted in strict compliance with the national animal research license 2009/561-1622.

[3] = no reference given; cited from earlier work
[4] = In situ rat intestinal injection: plasma insulin or PTH(1-34); type: in vivo; settings: intraintestinal
Protocol: 100 μL test samples were withdrawn from the basolateral compartment at time-points 0, 60, 120 and 180 min and stored at -20 °C. The sample volume was immediately replaced with 37 °C hHBSS. […] Male Sprague Dawley rats (Taconic, Ejby, Denmark) weighing ~250 g were allowed to acclimatize for at least 8 days at 20-22 °C and 45-65% humidity with free access to water and food. The rats were fasted for 18 h prior to surgery. Hypnorm (fentanyl 0.315 mg/mL and fluanisone 10 mg/mL) (Glostrup apotek, Glostrup, Denmark) and Dormicum (midazolam 5 mg/mL) (Nomeco, Copenhagen, Denmark) were mixed 1:1 (v/v) with ultrapure water and used for anesthesia. The initial dose was 2 mL/kg and subsequent doses of 1 mL/kg were given every 20 min within the first hour and thereafter every 40 min to keep the animals anaesthetized. All doses of anesthetics were administered subcutaneously in the neck region. The abdominal wall was cut open and the small intestine localized. A 10 cm PE-50 catheter (Smiths Medical, Keene, NH, USA) was inserted into the middle of the intestine and secured with a 3/0 suture (Braun, Tuttlingen, Germany). Care was taken not to interrupt the mesenteric blood flow. The intestine was hydrated with 1-2 mL isotonic sodium chloride solution before the rat abdominal wall was closed with 9 mm clips using the AutoClip Wound Closure System (Alzet, Cupertino, CA, USA). […] The blood samples were placed on ice prior isolation of the plasma by centrifugation at 2000× g at 4 °C for 10 min (Eppendorf centrifuge 5424, Eppendorf, Hamburg, Germany). Blood glucose was measured at time points of 15, 30, 45, 60, 90, and 120 min after dosing using an On-Call blood glucose meter (Acon, San Diego, CA, USA). After the final blood sampling, the animals were euthanized while still under anesthesia using 90% CO2 in O2 [19]. The abdominal wall of the rats was reopened after the experiment to ensure the catheter was still in place. Likewise, control of potential damage to the intestine was determined macroscopically. The experiments were conducted in strict compliance with the national animal research license 2009/561-1622.

[5] = tested on: Caco-2 cell monolayers; assay: In vitro transepithelial permeation across Caco-2 cell monolayers; type: in vitro ADME, human; settings: Caco-2, apical to basolateral, 3 h, 37 °C, ELISA/EIA, N = 3, n = 3; for effect on permeation of lowering the sample pH from 6.5 or 7.4 to pH 5, without penetratin (in words): 5 µM peptide alone
Protocol: At 80% confluency the cells were sub-cultured by detaching them from the culture flasks by trypsin-EDTA treatment. […] Caco-2 cell monolayers were washed twice apical and basolateral with 37 °C hHBSS. The cells were equilibrated to room temperature in the last washing volume before TEER was measured using an EVOM equipped with an Endohm-12 cup (World Precision Instruments, Sarasota, FL, USA) and equilibration to 37 °C. […] The permeation study was initiated by careful transfer of the filter inserts to fresh 12-well plates containing 1 mL 37 °C hHBSS. The experiment was performed on a 37 °C shaking table (50 rpm). 100 µL test samples were withdrawn from the basolateral compartment at time-points 0, 60, 120 and 180 min and stored at −20 °C. The sample volume was immediately replaced with 37 °C hHBSS.

[6] = tested on: Caco-2 cell monolayers; assay: In vitro stability during apical incubation on Caco-2 cell monolayers; type: in vitro ADME, human; settings: 37 °C, RP-HPLC; for peptide remaining after 4 h in physical mixture with penetratin, % of initially applied: 5 µM peptide + 20 µM penetratin, N = 3, mean ± SD
Protocol: (§1) At 80% confluency the cells were sub-cultured by detaching them from the culture flasks by trypsin-EDTA treatment. […] [17]. Briefly, The Caco-2 cell monolayers were washed twice apical and basolateral with 37 °C hHBSS and equilibrated to room temperature in the last washing volume. The transepithelial electrical resistance (TEER) was measured using an EVOM equipped with an Endohm-12 cup (World Precision Instruments, Sarasota, FL, USA) to validate the barrier integrity of the monolayer. Following equilibration to 37 °C the filter inserts were transferred to empty 6-well plates in order to block permeation across the monolayer. […] The kinetics of the metabolic degradation was evaluated by analytical RP-HPLC as described under the ultracentrifugation procedure.

[7] = as above; type: in vitro ADME, human; settings: human, peptide alone, 5 µM, 37 °C, RP-HPLC, N = 3, mean ± SD, read-out: intact peptide remaining after 4 h, % of initial concentration
Protocol: as §1

[8] = Visual inspection of samples at the concentrations applied in vivo; type: physicochemical; settings: PTH(1-34) mixed with penetratin
[9] = Size distribution by dynamic light scattering; type: physicochemical; settings: DLS, mHBSS pH 5, 25 °C, 180 µM insulin or PTH(1-34), alone or mixed with 720 µM penetratin, N = 3, mean ± SD
Protocol: Size distributions according to the distribution by volume were determined using a Zetasizer Nano ZSP (Malvern Instruments, Worcestershire, UK) equipped with a 633 nm laser at 25 °C with 10–20 runs of 10 s and N = 3.

[10] = insulin (50 IU/kg) alone or 720 µM penetratin alone, pH 5, N = 6, mean ± SD
[11] = apical pH 5, 5 µM peptide + 20 µM penetratin
[12] = apical pH 6.5 and 7.4, 5 µM peptide + 20 µM penetratin
[13] = pH 5, apical incubation on Caco-2 monolayers
[14] = pH 6.5, apical incubation on Caco-2 monolayers
[15] = pH 7.4, apical incubation on Caco-2 monolayers

Molecule | ThT fluorescence above background, peptide alone (in words) [1] | blood glucose level, % of initial value [2, 10] | pI [3] | effect on permeation of lowering the sample pH from 6.5 or 7.4 to pH 5, without penetratin (in words) [5] | penetratin-mediated transepithelial permeation / Papp (in words) [5, 11] | penetratin-mediated transepithelial permeation / Papp (in words) [5, 12] | peptide remaining after 4 h in physical mixture with penetratin, % of initially applied [6, 13] [%] | peptide remaining after 4 h in physical mixture with penetratin, % of initially applied [6, 15] | other results
RQIKIWFQNRRMKWKK [penetratin] | no pronounced increase | did not affect | 12.3 | – | – | – | – | – | –
CC[C@H](C)[C@H](NC(=O)[C@H](CCC(=O)O)NC(=O)[C@H](CO)NC(=O)[C@@H](NC(=O)[C@@H](N)CO)C(C)C)C(=O)N[C@@H](CCC(N)=O)C(=O)N[C@@H](CC(C)C)C(=O)N[C@@H](CCSC)C(=O)N[C@@H](Cc1cnc[nH]1)C(=O)N[C@@H](CC(N)=O)C(=O)N[C@@H](CC(C)C)C(=O)NCC(=O)N[C@@H](CCCCN)C(=O)N[C@@H](Cc1cnc[nH]1)C(=O)N[C@@H](CC(C)C)C(=O)N[C@@H](CC(N)=O)C(=O)N[C@@H](CO)C(=O)N[C@@H](CCSC)C(=O)N[C@@H](CCC(=O)O)C(=O)N[C@@H](CCCN=C(N)N)C(=O)N[C@H](C(=O)N[C@@H](CCC(=O)O)C(=O)N[C@@H](Cc1c[nH]c2ccccc12)C(=O)N[C@@H](CC(C)C)C(=O)N[C@@H](CCCN=C(N)N)C(=O)N[C@@H](CCCCN)C(=O)N[C@@H](CCCCN)C(=O)N[C@@H](CC(C)C)C(=O)N[C@@H](CCC(N)=O)C(=O)N[C@@H](CC(=O)O)C(=O)N[C@H](C(=O)N[C@@H](Cc1cnc[nH]1)C(=O)N[C@@H](CC(N)=O)C(=O)N[C@@H](Cc1ccccc1)C(=O)O)C(C)C)C(C)C [PTH(1-34)] | no pronounced increase | – | 8.3 | did not increase | increase | no significant increase | 72.4 ± 3.0 | 69.9 ± 2.7% | pH-dependent trend of penetratin-mediated delivery, Cmax of plasma PTH(1-34) and AUC ([4]; PTH(1-34) 1.2 mg/kg + penetratin 1:4, N = 6): pH 5 > pH 6.5 > pH 7.4; peptide remaining after 4 h in physical mixture with penetratin, % of initially applied [6, 14]: 67.0 ± 2.6%; remaining at 4 h, 5 µM [7, 13]: 66.6 ± 8.5%; remaining at 4 h, 5 µM [7, 14]: 71.7 ± 7.1%; remaining at 4 h, 5 µM [7, 15]: 73.6 ± 9.1%; visible precipitation on mixing with penetratin (in words) [8]: not evident
insulin: Human recombinant insulin (5807.6 g/mol, Zn-free) provided by Sanofi | increase | 86.9 ± 6.0% | – | did not increase | increase | no significant increase | 89.9 ± 11.2 | remained stable | plasma insulin concentration and AUC on co-administration with penetratin (in words) ([4]; insulin 50 IU/kg + penetratin 1:4, pH 5, compared to pH 6.5 and 7.4, N = 6): greatest effect; plasma insulin concentration and AUC on co-administration with penetratin (in words) ([4]; insulin 50 IU/kg + penetratin 1:4, pH 6.5, N = 6): slight increase; plasma insulin concentration and AUC on co-administration with penetratin (in words) ([4]; insulin 50 IU/kg + penetratin 1:4, pH 7.4, N = 6): did not differ from administration of insulin alone; stability during incubation for 4 h (in words) ([6]; 5 µM insulin alone, pH 5, 6.5, or 7.4, apical incubation on Caco-2 monolayers, N = 3): remained stable; blood glucose level, % of initial value ([2]; insulin 50 IU/kg in physical mixture with 720 µM penetratin (1:4), pH 5, 60 min time-point, N = 6, mean ± SD): 38.5 ± 23.8%; blood glucose level, % of initial value ([2]; insulin 50 IU/kg in physical mixture with 720 µM penetratin (1:4), pH 6.5, after 60 min, N = 6, mean ± SD): 71.1 ± 17.8%; blood glucose level, % of initial value ([2]; insulin 50 IU/kg in physical mixture with 720 µM penetratin (1:4), pH 7.4, after 60 min, N = 6, mean ± SD): 83.3 ± 21.2%; blood glucose level, % of initial value ([2]; insulin (50 IU/kg) alone, pH 6.5, N = 6, mean ± SD): 88.9 ± 11.1%; blood glucose level (in words) ([2]; insulin (50 IU/kg) alone, pH 7.4, N = 6): did not affect; volume mean size [9]: 1579 ± 319 nm
